Test results from ChEMBL document CHEMBL1132253, “Potent inhibition of influenza sialidase by a benzoic acid containing a 2-pyrrolidinone substituent” (J Med Chem, 1999).

Target: Neuraminidase (Influenza B virus (strain B/Lee/1940), UniProt P03474)
Experiment: In vitro inhibitory activity against B/Lee/40 Influenza B Neuraminidase.

Structure (SMILES)	IC50 [µM]
CCC(CC)Nc1cc(C(=O)O)ccc1N1C(=O)CCC1(CO)CO	104
N=C(N)Nc1cc(C(=O)O)ccc1N1C(=O)CCC1(CO)CO	8
CC(=O)Nc1c(N=C(N)N)cc(C(=O)O)cc1N=C(N)N	250
CCC(CC)Nc1cc(C(=O)O)ccc1N1CCCC1=O	> 5000
O=C(O)c1ccc(N2C(=O)CCC2(CO)CO)cc1	> 8000
NCC1CCC(=O)N1c1ccc(C(=O)O)cc1N=C(N)N (stereo unspecified)	500
